“And” between values parts separate entries of the source, which are not always exact repeats. Equal entries are not always repeated.
Experiments:
[1] = tested on: CE activity in human biopsy whole tissue sonicates; assay: Esterase assay (o-NPA conversion) with human biopsy extracts; type: biochemical
Experimental: Using human intestinal mucosal biopsy tissue, the conversion of o-NPA to nitrophenol by whole tissue sonicates was monitored. CE activity was identified in both small intestine and colon samples, with activity levels in small intestine being much less than the levels seen with human liver.
Biopsies of human intestine were obtained from the Cooperative Human Tissue Network (Birmingham, Ala.). The samples were ground under liquid nitrogen and the resulting powder sonicated in 50 mM Hepes, pH 7.4, on ice.
(§1) Esterase activity was determined in whole tissue sonicates using a spectrophotometric assay with o-nitrophenol acetate as a substrate (Potter et al. 1998 Cancer Res. 52:2646-2651; Beaufay et al. 1974 J. Cell Biol. 61:188-200). Protein concentrations were calculated using BioRad protein assay reagent (Hercules, Calif.) with bovine serum albumin as a standard. Enzyme activities were calculated as μmoles of o-nitrophenol produced per minute per mg of total protein.

rabbit liver CE = biological target: T1, rabbit liver CE (Oryctolagus cuniculus, UniProt P12337); assay: Esterase assay (o-NPA), COS-7 cells expressing rabbit CE; type: biochemical; parameters: To amplify a full length rabbit CE cDNA, oligonucleotide primers RabNTERM; expressed in transfected cells; host or cells: COS-7 (sonicates of transiently transfected cells); conditions: plasmid pCIRAB, enzyme rabbit
T1 sequence (P12337 19-565): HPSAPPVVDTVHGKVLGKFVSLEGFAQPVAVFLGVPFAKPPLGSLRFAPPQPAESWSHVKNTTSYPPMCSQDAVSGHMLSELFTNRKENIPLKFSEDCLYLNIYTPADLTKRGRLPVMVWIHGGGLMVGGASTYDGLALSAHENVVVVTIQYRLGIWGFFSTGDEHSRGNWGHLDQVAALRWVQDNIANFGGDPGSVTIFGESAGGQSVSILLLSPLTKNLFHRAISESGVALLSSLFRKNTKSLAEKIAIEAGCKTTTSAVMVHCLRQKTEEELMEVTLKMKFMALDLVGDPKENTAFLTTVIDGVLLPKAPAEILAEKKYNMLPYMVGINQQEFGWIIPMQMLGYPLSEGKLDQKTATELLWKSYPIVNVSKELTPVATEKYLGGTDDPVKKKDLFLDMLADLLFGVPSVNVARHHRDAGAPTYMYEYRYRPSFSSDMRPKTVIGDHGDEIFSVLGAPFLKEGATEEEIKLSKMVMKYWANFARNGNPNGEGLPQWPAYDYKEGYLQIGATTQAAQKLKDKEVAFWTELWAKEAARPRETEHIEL
Experimental: as §1

[2] = biological target: T2, human intestinal CE (hiCE) (Homo sapiens, UniProt O00748); assay: Esterase assay (o-NPA), COS-7 cells expressing hiCE; type: biochemical; conditions: plasmid pCIhiCE, media
T2 construct: expressed in transfected cells; host or cells: COS-7 (sonicates of transiently transfected cells)
Experimental: as §1

[3] = tested on: COS-7 cells (pCIneo, no enzyme); assay: Esterase assay (o-NPA), COS-7 cells transfected with pCIneo; type: biochemical, monkey; conditions: plasmid pCIneo
Experimental: as §1

human liver CE (hCE1) = biological target: T3, human liver CE (hCE1) (Homo sapiens, UniProt P23141); assay: Esterase assay (o-NPA), COS-7 cells expressing hCE1; type: biochemical; conditions: plasmid pCIHUMCAR, enzyme hCE1
T3 construct: expressed in transfected cells; host or cells: COS-7 (sonicates of transiently transfected cells)
Experimental: as §1

T3 sequence (P23141 18-567): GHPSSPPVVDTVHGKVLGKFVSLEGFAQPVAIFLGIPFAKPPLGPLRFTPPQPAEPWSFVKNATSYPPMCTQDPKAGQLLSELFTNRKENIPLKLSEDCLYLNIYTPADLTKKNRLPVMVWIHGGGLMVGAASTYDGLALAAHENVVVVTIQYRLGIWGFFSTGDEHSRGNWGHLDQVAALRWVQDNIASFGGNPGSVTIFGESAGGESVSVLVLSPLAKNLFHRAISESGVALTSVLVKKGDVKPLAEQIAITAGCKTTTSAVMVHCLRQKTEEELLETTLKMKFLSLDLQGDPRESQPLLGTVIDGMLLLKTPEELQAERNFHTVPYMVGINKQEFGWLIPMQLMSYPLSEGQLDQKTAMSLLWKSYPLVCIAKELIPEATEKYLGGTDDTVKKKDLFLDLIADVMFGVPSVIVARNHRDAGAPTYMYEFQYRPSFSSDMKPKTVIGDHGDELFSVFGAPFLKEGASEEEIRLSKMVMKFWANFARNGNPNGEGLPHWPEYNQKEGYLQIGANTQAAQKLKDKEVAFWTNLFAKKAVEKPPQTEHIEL
T2 sequence (O00748 27-559): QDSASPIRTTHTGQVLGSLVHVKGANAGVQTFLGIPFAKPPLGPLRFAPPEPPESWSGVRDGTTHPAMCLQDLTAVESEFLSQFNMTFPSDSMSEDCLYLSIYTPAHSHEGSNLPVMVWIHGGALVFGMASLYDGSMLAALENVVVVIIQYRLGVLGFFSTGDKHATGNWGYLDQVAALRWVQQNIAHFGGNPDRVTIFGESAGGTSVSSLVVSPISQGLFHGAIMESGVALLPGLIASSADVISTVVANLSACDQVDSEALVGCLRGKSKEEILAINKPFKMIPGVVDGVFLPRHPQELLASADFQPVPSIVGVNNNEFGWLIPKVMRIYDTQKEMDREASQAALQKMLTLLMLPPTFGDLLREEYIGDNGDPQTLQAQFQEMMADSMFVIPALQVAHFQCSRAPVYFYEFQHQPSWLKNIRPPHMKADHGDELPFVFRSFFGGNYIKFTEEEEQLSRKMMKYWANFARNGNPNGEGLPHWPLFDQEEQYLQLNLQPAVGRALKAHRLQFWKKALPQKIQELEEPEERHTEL

CC(=O)Oc1ccccc1[N+](=O)[O-] [o-NPA, o-nitrophenyl acetate]
o-NPA Conversion ([1]; human colon biopsy extract): 46.5 ± 1.2 µmol/min/mg and 86.3 ± 5.2 µmol/min/mg and 75.9 ± 2.6 µmol/min/mg
o-NPA Conversion ([1]; human small intestine biopsy extract): 113.0 ± 9.2 µmol/min/mg and 67.6 ± 4.1 µmol/min/mg and 61.0 ± 2.0 µmol/min/mg
o-NPA Conversion (rabbit liver CE): 2755.5 ± 271.2 µmol/min/mg
o-NPA Conversion [2]: 30.9 ± 2.8 µmol/min/mg
o-NPA Conversion ([3]; enzyme none): 6.7 ± 0.15 µmol/min/mg
o-NPA Conversion ([3]; media): 13.3 ± 2.7 µmol/min/mg
o-NPA Conversion (human liver CE (hCE1)): 4780.3 ± 279.8 µmol/min/mg

— US7452717B2, “Compositions and methods for sensitizing and inhibiting growth of human tumor cells” (St. Jude Children's Research Hospital, priority 1998, dated 2008)
